In US11877574B2, “Herbicidal oil dispersion and method” (Arysta LifeScience Inc., priority 2018, dated 2024):

How the values were obtained:
[1] = Active ingredient assay and recovery on storage (Table 2); assay type: physicochemical
[2] = Active ingredient assay on storage, SCB239-12 (Table 3); assay type: physicochemical

CCCCCCC(C)OC(=O)COc1nc(F)c(Cl)c(N)c1Cl (stereo not shown) [Fluroxypyr, Fluroxypyr Meptyl]
Assay (% w/w) ([1]; 1 month storage, 0° C.): 11.47 % w/w
Assay (% w/w) ([1]; 1 month storage, 40° C.): 11.50 % w/w
Assay (% w/w) ([1]; 1 month storage, T/C): 11.52 % w/w
Assay (% w/w) ([1]; 1 month storage, −10° C.): 11.49 % w/w
Assay (% w/w) ([1]; 2 month storage, 0° C.): 11.56 % w/w
Assay (% w/w) ([1]; 2 month storage, 40° C.): 11.56 % w/w
Assay (% w/w) ([1]; 2 month storage, T/C): 11.55 % w/w
Assay (% w/w) ([1]; 2 month storage, −10° C.): 11.55 % w/w
Assay (% w/w) ([1]; 2 wks, 54° C.): 11.63 % w/w
Assay (% w/w) ([1]; 3 month storage, 0° C.): 11.63 % w/w
Assay (% w/w) ([1]; 3 month storage, 25° C.): 11.68 % w/w
Assay (% w/w) ([1]; 3 month storage, 40° C.): 11.69 % w/w
Assay (% w/w) ([1]; 3 month storage, T/C): 11.71 % w/w
Assay (% w/w) ([1]; 3 month storage, −10° C.): 11.71 % w/w
Assay (% w/w) ([1]; 6 month storage, 25° C.): 11.36 % w/w
Assay (% w/w) ([1]; 9 month storage, 25° C.): 11.56 % w/w
Assay (% w/w) ([1]; 12 month storage, 25° C.): 11.63 % w/w
Assay (% w/w) ([1]; F/T Sample): 11.61 % w/w
Assay (% w/w) ([1]; initial): 11.60 % w/w
Assay (% w/w) ([2]; 1 month storage, 0° C.): 11.25 % w/w
Recovery of active ingredient (% of initial assay) ([2]; 1 month storage, 0° C.): 99.37 % w/w
Assay (% w/w) ([2]; 1 month storage, 40° C.): 11.24 % w/w
Recovery of active ingredient (% of initial assay) ([2]; 1 month storage, 40° C.): 99.33 % w/w
Assay (% w/w) ([2]; 1 month storage, T/C): 11.25 % w/w
Recovery of active ingredient (% of initial assay) ([2]; 1 month storage, T/C): 99.36 % w/w
Assay (% w/w) ([2]; 2 month storage, 0° C.): 11.19 % w/w
Recovery of active ingredient (% of initial assay) ([2]; 2 month storage, 0° C.): 98.83 % w/w
Assay (% w/w) ([2]; 2 month storage, 40° C.): 11.13 % w/w
Recovery of active ingredient (% of initial assay) ([2]; 2 month storage, 40° C.): 98.36 % w/w
Assay (% w/w) ([2]; 2 month storage, T/C): 11.17 % w/w
Recovery of active ingredient (% of initial assay) ([2]; 2 month storage, T/C): 98.68 % w/w
Assay (% w/w) ([2]; 2 wks, 54° C.): 11.26 % w/w
Recovery of active ingredient (% of initial assay) ([2]; 2 wks, 54° C.): 99.48 % w/w
Assay (% w/w) ([2]; 3 month storage, 0° C.): 11.23 % w/w
Recovery of active ingredient (% of initial assay) ([2]; 3 month storage, 0° C.): 99.21 % w/w
Assay (% w/w) ([2]; 3 month storage, 25° C.): 11.20 % w/w
Recovery of active ingredient (% of initial assay) ([2]; 3 month storage, 25° C.): 98.92 % w/w
Assay (% w/w) ([2]; 3 month storage, 40° C.): 11.21 % w/w
Recovery of active ingredient (% of initial assay) ([2]; 3 month storage, 40° C.): 99.04 % w/w
Assay (% w/w) ([2]; 3 month storage, −10° C.): 11.13 % w/w
Recovery of active ingredient (% of initial assay) ([2]; 3 month storage, −10° C.): 98.30 % w/w
Assay (% w/w) ([2]; F/T sample): 11.28 % w/w
Recovery of active ingredient (% of initial assay) ([2]; F/T sample): 99.68 % w/w
Assay (% w/w) ([2]; Initial): 11.32 % w/w

COc1nn(C(=O)[N-]S(=O)(=O)c2ccccc2OC(F)(F)F)c(=O)n1C.[Na+] [Flucarbazone, Flucarbazone Sodium]
Assay (% w/w) ([1]; 1 month storage, 0° C.): 1.89 % w/w
Assay (% w/w) ([1]; 1 month storage, 40° C.): 1.90 % w/w
Assay (% w/w) ([1]; 1 month storage, T/C): 1.90 % w/w
Assay (% w/w) ([1]; 1 month storage, −10° C.): 1.90 % w/w
Assay (% w/w) ([1]; 2 month storage, 0° C.): 1.93 % w/w
Assay (% w/w) ([1]; 2 month storage, 40° C.): 1.91 % w/w
Assay (% w/w) ([1]; 2 month storage, T/C): 1.93 % w/w
Assay (% w/w) ([1]; 2 month storage, −10° C.): 1.93 % w/w
Assay (% w/w) ([1]; 2 wks, 54° C.): 1.90 % w/w
Assay (% w/w) ([1]; 3 month storage, 0° C.): 1.98 % w/w
Assay (% w/w) ([1]; 3 month storage, 25° C.): 1.99 % w/w
Assay (% w/w) ([1]; 3 month storage, 40° C.): 1.94 % w/w
Assay (% w/w) ([1]; 3 month storage, T/C): 1.98 % w/w
Assay (% w/w) ([1]; 3 month storage, −10° C.): 1.99 % w/w
Assay (% w/w) ([1]; 6 month storage, 25° C.): 1.92 % w/w
Assay (% w/w) ([1]; 9 month storage, 25° C.): 1.92 % w/w
Assay (% w/w) ([1]; 12 month storage, 25° C.): 1.92 % w/w
Assay (% w/w) ([1]; F/T Sample): 1.92 % w/w
Assay (% w/w) ([1]; initial): 1.91 % w/w
Assay (% w/w) ([2]; 1 month storage, 0° C.): 1.81 % w/w
Recovery of active ingredient (% of initial assay) ([2]; 1 month storage, 0° C.): 99.67 % w/w
Assay (% w/w) ([2]; 1 month storage, 40° C.): 1.85 % w/w
Recovery of active ingredient (% of initial assay) ([2]; 1 month storage, 40° C.): 101.98 % w/w
Assay (% w/w) ([2]; 1 month storage, T/C): 1.83 % w/w
Recovery of active ingredient (% of initial assay) ([2]; 1 month storage, T/C): 101.13 % w/w
Assay (% w/w) ([2]; 2 month storage, 0° C.): ′1.81 % w/w
Recovery of active ingredient (% of initial assay) ([2]; 2 month storage, 0° C.): 99.76 % w/w
Assay (% w/w) ([2]; 2 month storage, 40° C.): 1.80 % w/w
Recovery of active ingredient (% of initial assay) ([2]; 2 month storage, 40° C.): 99.54 % w/w
Assay (% w/w) ([2]; 2 month storage, T/C): 1.82 % w/w
Recovery of active ingredient (% of initial assay) ([2]; 2 month storage, T/C): 100.35 % w/w
Assay (% w/w) ([2]; 2 wks, 54° C.): 1.68 % w/w
Recovery of active ingredient (% of initial assay) ([2]; 2 wks, 54° C.): 92.84 % w/w
Assay (% w/w) ([2]; 3 month storage, 0° C.): 1.80 % w/w
Recovery of active ingredient (% of initial assay) ([2]; 3 month storage, 0° C.): 99.13 % w/w
Assay (% w/w) ([2]; 3 month storage, 25° C.): 1.79 % w/w
Recovery of active ingredient (% of initial assay) ([2]; 3 month storage, 25° C.): 98.51 % w/w
Assay (% w/w) ([2]; 3 month storage, 40° C.): 1.72 % w/w
Recovery of active ingredient (% of initial assay) ([2]; 3 month storage, 40° C.): 95.13 % w/w
Assay (% w/w) ([2]; 3 month storage, −10° C.): 1.78 % w/w
Recovery of active ingredient (% of initial assay) ([2]; 3 month storage, −10° C.): 98.44 % w/w
Assay (% w/w) ([2]; F/T sample): 1.80 % w/w
Recovery of active ingredient (% of initial assay) ([2]; F/T sample): 99.26 % w/w
Assay (% w/w) ([2]; Initial): 1.81 % w/w
